# Data taken from patent US20080275110A1, “Sesamin/Episesamin Compositions” (priority 2004, published 2008).
# What was measured:
# [1] = Oral absorption of episesamin and its transfer into blood circulation (I), LC-MS/MS of plasma; design: species or system SD (IGS) male rats; conditions: male, SD (IGS), rat, in vivo, 10 mg/kg
# Method: (§1) SD (IGS) male rats (6-wk old) were purchased from CHARLES RIVER JAPAN INC. and habituated in the test environment for a week; the animals that were seen to grow normally were subjected to the test. The rats fasted overnight were divided into six groups each consisting of 5 heads; the high purity sesamin and episesamin obtained in Example 1 were incorporated at varying weight ratios of 6:4, 5:5, 4:6, 3:7, 1:9 and 0:10 to prepare sesamin/episesamin mixtures, which were dissolved in olive oil at a dose of 10 mg/kg and administered perorally to the rats via a feeding tube. […] After adding an internal standard, solid-phase extraction was performed with Oassis HLB and the liquid extract was concentrated under vacuum, suspended in methanol, passed through a filter, and subjected to LC-MS/MS for quantification of sesamin and episesamin. The quantity of sesamin or episesamin was determined from the ratio between the peak area of sesamin or episesamin and that of UDESMIN (Funakoshi Co, Ltd.) used as the internal standard. […]
# The concentration of episesamin in blood peaked in about 6 hours after the administration, then decreased gradually until it became almost undetectable in 24 hours. From the blood concentration curve for 0-24 hours, the area under the curve (AUC) was determined as an index of absorbed quantity. […]
# [2] = Oral absorption of episesamin and its transfer into blood circulation (II), lowered sesamin ratios; design: species or system rats; conditions: male, SD (IGS), rat, in vivo, 10 mg/kg
# Method: as §1
# With a view to prescribing effective mixing ratios of sesamin, the action of further lowered ratios of sesamin was evaluated in accordance with the method of Example 2. […]
# [3] = test system: Deoxycorticosterone Acetate-Salt (DOCA-Salt) Induced Hypertension Model Rats; experiment: Blood pressure lowering action in DOCA-salt induced hypertension model rats (tail-cuff SBP); type: in vivo, SD male rats; conditions: 100 mg/kg single oral; for changes in blood pressure for 24 hours after the single administration: Example 4, FIG. 3, n=5-7; for changes in blood pressure 8 hours after the administration: Example 4, FIG. 4
# Method: SD male rats (6-wk old) (purchased from Japan SLC, Inc.) were subjected to surgery for removing the right kidney under anesthetization with Nembutal. After recuperation for a week, the rats were administered subcutaneously with DOCA-salt twice a week at a dose of 15 mg/kg, and allowed to drink 1% saline. The systolic blood pressure (SBP) of each animal was measured by a tail-cuff method with a non-invasive automatic blood pressure measuring apparatus (BP-98A, Softron, Tokyo). At 5 weeks after the start of treatment with DOCA-salt, blood pressure was measured and the animals in which adequate elevation of blood pressure was verified were used in the following experiment. Rats fasted for 8 hours were divided into a control group and three test groups. The control group was administered olive oil only. For the test groups, the high purity sesamin and episesamin obtained in Example 1 were incorporated at varying weight ratios of 10:0, 5:5 and 0:10 to prepare sesamin/episesamin mixtures, which were suspended in olive oil at a dose of 100 mg/kg. Single oral administration of olive oil or the suspension was effected via a feeding tube. Both before the administration and 2, 4, 6, 8, 10, 12 and 24 hours after the administration, SBP measurement was conducted. Diet was applied after the blood pressure measurement at 12 hours. Testing was conducted at 1-wk intervals and the same head was subjected to no more than three measurements.
# Sesamin and episesamin were incorporated at varying weight ratios of 5:5, 3:7 and 1:9 to prepare sesamin/episesamin mixtures, which were dissolved in olive oil at a dose of 50 mg/kg. Single oral administration of the solution was effected via a feeding tube, and for blood pressure measurement was conducted.
# β-oxidation genes = experiment: Effects on the expression of β-oxidation genes, quantitative RT-PCR; type: in vivo, Wistar male rats; conditions: Example 6, FIGS. 6A/6B; 200 mg/kg peroral three times at 24-hr intervals, 4 hours after final administration
# Method: Wistar male rats (6-wk old) were purchased from CLEA Japan, Inc. and habituated in the test environment for a week; the animals that were seen to grow normally were subjected to the test. The rats were divided into six groups each consisting of 5 heads. The control group was administered with olive oil only. For the test groups, the high purity sesamin and episesamin obtained in Example 1 were incorporated at varying weight ratios of 10:0, 5:5, 3:7, 1:9 and 0:10 to prepare sesamin/episesamin mixtures, which were suspended in olive oil at a dose of 200 mg/kg. The rats were administered perorally with olive oil or the suspension three times at 24-hr intervals. Four hours after the final administration, the kidney was removed from each rat under anesthetization with Nembutal; after extracting RNA, effects on the expression of 10 β-oxidation genes were investigated by quantitative RT-PCR using TaqMan chemistry (Heid C A, Stevens J, Livak K J, Williams P M, Real time quantitative PCR, Genome Res. 1996 6(10):986-94).
# In contrast, each of the groups administered with the sesamin/episesamin mixture experienced more elevated gene expression than the group administered with episesamin alone. The effect of the mixing ratio was somewhat variable from one gene to another but no significant difference was found among the three groups administered with the sesamin/episesamin mixture.
# [4] = test system: β-oxidation enzymes in the liver; conditions: rats, separately administered orally; cited from earlier work
# fatty acid synthases = conditions: rats, separately administered orally; cited from earlier work
# [5] = rat, in vivo, po; cited from earlier work
SMILES,percent absorption of episesamin (AUC 0-24 hours divided by relative amount of episesamin administered) [1],percent absorption of episesamin [2],changes in blood pressure for 24 hours after the single administration [3],changes in blood pressure 8 hours after the administration [3],expression of β-oxidation genes (β-oxidation genes),gene expression and enzymatic activity of β-oxidation enzymes in the liver compared with sesamin [4],"activity for inhibiting fatty acid synthases, sesamin versus episesamin (fatty acid synthases)",transfer into organs relative to sesamin [5]
c1cc2c(cc1[C@H]1OC[C@H]3[C@@H]1CO[C@H]3c1ccc3c(c1)OCO3)OCO2 [episesamin],72.5%,59.7%,No significant changes,−6 mmHg,many genes were expressed in increased amounts,markedly increased,no difference between sesamin and episesamin,at least twice as much as that of sesamin
c1cc2c(cc1[C@H]1OC[C@H]3[C@@H]1CO[C@@H]3c1ccc3c(c1)OCO3)OCO2 [sesamin],,,No significant changes,−13 mmHg,hardly rose,,no difference between sesamin and episesamin,
